The nature of the series: Particle size of temozolomide drug substance entering the composition. The format is physicochemical. An excerpt: Characteristically, the composition of temozolomide according to the invention further contains at least one agent controlling the solid state of temozolomide in suspension. Indeed and during the development of the compositions of the invention, the Applicants observed an erratic recrystallisation of temozolomide after reconstitution of some suspensions with water. […] The recrystallisation triggered dose inhomogeneity within the suspensions, with large crystals settling down the bottom of the bottle or container. Furthermore, large crystals tended to clog the syringe for oral administration. This recrystallisation phenomenon was also observed in compositions containing povidone, the excipient used in the hospital-compounded formulations developed by Trissel et al. and Ambados et al.

Regarding `Cn1nnc2c(C(N)=O)ncn2c1=O` [temozolomide, 3-methyl-4-oxoimidazo[5,1-d][1,2,3,5]tetrazine-8-carboxamide], the “particle size d90” value was less than 100 μm.

Values taken from patent US11730732B2, “Oral suspension of temozolomide” (Orphelia Pharma, priority 2018, dated 2023).
